Measured values: US7867992B2, “Substituted quinolones” (AiCuris GmbH & Co. KG, priority 2004, dated 2011)
Structures can show the parent of a compound that is named as a salt. Where two headings read alike, the source gives them in different places.

Experiments:
HCMV = experiment: Anti-HCMV cytopathogenicity test (CPE inhibition); format: cell-based, human cytomegalovirus; details: for EC50: read-out: HCMV EC50; for SI HCMV (selectivity index): SI = CC50 (NHDF)/EC50 (HCMV)
Experimental: (§1) Anti-HCMV (Anti-human Cytomegalovirus) Cytopathogenicity Tests
(§2) The test compounds are employed as 50 millimolar (mM) solutions in dimethyl sulfoxide (DMSO). Ganciclovir®, Foscamet® and Cidofovir® are used as reference compounds. After the addition of 2 μl of the 50, 5, 0.5 and 0.05 mM DMSO stock solutions respectively to 98 μl portions of cell culture medium in row 2 A-H for duplicate determinations, 1:2 dilutions are carried out with 50 μl portions of medium up to row 11 of the 96-well plate. The wells in rows 1 and 12 each contain 50 μl of medium. 150 μl of a suspension of 1×10^4 cells (human prepuce fibroblasts [NHDF]) are then pipetted into each of the wells (row 1=cell control) and, in rows 2-12, a mixture of HCMV-infected and uninfected NHDF cells (M.O.I.=0.001-0.002), i.e. 1-2 infected cells per 1000 uninfected cells. Row 12 (without substance) serves as virus control. The final test concentrations are 250-0.0005 μM. The plates are incubated at 37° C./5% CO2 for 6 days, i.e. until all the cells in the virus controls are infected (100% cytopathogenic effect [CPE]). The wells are then fixed and stained by adding a mixture of formalin and Giemsa's dye (30 minutes), washed with double-distilled water and dried in a drying oven at 50° C. The plates are then assessed visually using an overhead microscope (plaque multiplier from Technomara).
(§3) The following data can be obtained from the test plates: • CC50 (NHDF)=substance concentration in μM at which no visible cytostatic effects on the cells are evident by comparison with the untreated cell control; • EC50 (HCMV)=substance concentration in μM which inhibits the CPE (cytopathic effect) by 50% compared with the untreated virus control; • SI (selectivity index)=CC50 (NHDF)/EC50 (HCMV).

[1] = Cytostatic effect on NHDF cells in the anti-HCMV cytopathogenicity test; format: cell-based; details: NHDF cells (human prepuce fibroblasts), 6 days incubation, visual assessment, concentration at which no visible cytostatic effects are evident vs untreated cell control
Experimental: as §1, §2, §3

[2] = Human betaherpesvirus 5, 144 h, HCMV-infected NHDF cells, M.O.I. 0.001-0.002, 6 days, 50% inhibition of CPE vs untreated virus control

EC50 (HCMV; [2])	Compound	SI HCMV (selectivity index) (HCMV)	CC50 at 6 days [1]	EC50 (HCMV; Human betaherpesvirus 5, NHDF, 144 h)
100 nM	COc1c(N2C[C@@H](C)N[C@@H](C)C2)c(F)cc2c(=O)c(C(=O)NCc3ccc(Cl)cc3Cl)cn([C@@H]3C[C@@H]3F)c12 (mixture of isomers) [Example 16, N-(2,4-Dichlorobenzyl)-7-[(3RS,5SR)-3,5-dimethylpiperazin-1-yl]-6-fluoro-1-[(1R,2S)-2-fluorocyclopropyl]-8-methoxy-4-oxo-1,4-dihydroquinoline-3-carboxamide]	78	7.8 µM	
200 nM	O=C(NCc1ccc(Cl)cc1Cl)c1cn(C2CC2)c2c(Cl)c(N3CCCN(CCO)CC3)c(F)cc2c1=O [Example 1, 8-Chloro-1-cyclopropyl-N-(2,4-dichlorobenzyl)-6-fluoro-7-[4-(2-hydroxyethyl)-1,4-diazepan-1-yl]-4-oxo-1,4-dihydroquinoline-3-carboxamide]	12.5	2.5 µM	
230 nM	C[C@@H]1CN(c2c(F)cc3c(=O)c(C(=O)NCc4ccc(Cl)cc4Cl)cn(C4CC4)c3c2Cl)C[C@H](C)N1 [Example 5, 8-Chloro-1-cyclopropyl-N-(2,4-dichlorobenzyl)-7-[(3RS,5SR)-3,5-dimethylpipierazin-1-yl]-6-fluoro-4-oxo-1,4-dihydroquinoline-3-carboxamide]	26	6 µM	
250 nM	COc1c(N2C[C@@H](C)N[C@@H](C)C2)c(F)cc2c(=O)c(C(=O)NCc3ccc(C(F)(F)F)cc3C)cn(C3CC3)c12 [Example 24]	19	4.7 µM	
77 nM	COc1c(N2C[C@@H](C)N[C@@H](C)C2)c(F)cc2c(=O)c(C(=O)NCc3ccc(Cl)cc3Cl)cn([C@@H](C)C(F)(F)F)c12 [Example 45]	31	2.4 µM	
11 nM	COc1c(N2C[C@@H](C)N[C@@H](C)C2)c(F)cc2c(=O)c(C(=O)NCc3ccc(OC(F)(F)F)cc3Cl)cn(CC(F)(F)F)c12 [Example 51]	482	5.3 µM	
19 nM	COc1c(N2C[C@@H](C)N[C@@H](C)C2)c(F)cc2c(=O)c(C(=O)NCc3ccc(OC(F)(F)F)cc3C)cn(CC(F)(F)F)c12 [Example 52, 7-[(3RS,5SR)-3,5-Dimethylpiperazin-1-yl]-6-fluoro-8-methoxy-N-[2-methyl-4-(trifluoromethoxy)benzyl]-4-oxo-1-(2,2,2-trifluoroethyl)-1,4-dihydroquinoline-3-carboxamide]	405	7.7 µM	
2 nM	COc1c(N2C[C@@H](C)N(CC(=O)NS(C)(=O)=O)[C@@H](C)C2)c(F)cc2c(=O)c(C(=O)NCc3ccc(OC(F)(F)F)cc3C)cn(CC(F)(F)F)c12 [Example 68]	12000	24 µM	
92 nM	COc1c(N2CCN(CCC(N)=O)C(C)C2)c(F)cc2c(=O)c(C(=O)NCc3ccc(Cl)cc3Cl)cn(C3CC3)c12 (stereo not drawn) [Example 74]	28	2.6 µM	
31 nM	COc1c(N2C[C@@H](C)N(C[C@@H](O)CO)[C@@H](C)C2)c(F)cc2c(=O)c(C(=O)NCc3ccc(Cl)cc3Cl)cn(C3CC3)c12 [Example 92]	171	5.3 µM	

The remaining lines, values behind:

Compound	EC50 (HCMV; [2])	SI HCMV (selectivity index) (HCMV)	CC50 at 6 days [1]	EC50 (HCMV; Human betaherpesvirus 5, NHDF, 144 h)
Cc1cc(Cl)ccc1CNC(=O)c1cn(C2CC2)c2c(Cl)c(N3CCN(CCOCCO)CC3)c(F)cc2c1=O [Example 8, 8-Chloro-N-(4-chloro-2-methylbenzyl)-1-cyclopropyl-6-fluoro-7-{4-[2-(2-hydroxyethoxy)ethyl]piperazin-1-yl}-4-oxo-1,4-dihydroquinoline-3-carboxamide]	190 nM	41	7.7 µM	
COc1ccc(CNC(=O)c2cn(C3CC3)c3c(OC)c(N4C[C@@H](C)N[C@@H](C)C4)c(F)cc3c2=O)c(Cl)c1 [Example 22]	380 nM	22	8.4 µM	
COc1c(N2C[C@@H](C)N[C@@H](C)C2)c(F)cc2c(=O)c(C(=O)NCc3ccc(Cl)cc3Cl)cn(CCF)c12 [Example 28, N-(2,4-Dichlorobenzyl)-7-[(3RS,5RS-3,5-dimethyl)piperazin-1-yl]-6-fluoro-1-(2-fluoroethyl)-8-methoxy-4-oxo-1,4-dihydroquinoline-3-carboxamide hydroformate]	100 nM	63	6.1 µM	
COc1c(N2C[C@@H](C)N[C@@H](C)C2)c(F)cc2c(=O)c(C(=O)NCc3ccc(Cl)cc3Cl)cn([C@H]3C[C@H]3F)c12 [Example 34]	19 nM	442	8.4 µM	
COc1c(N2C[C@@H](C)N[C@@H](C)C2)c(F)cc2c(=O)c(C(=O)NCc3ccc(Cl)cc3Cl)cn(CC(F)F)c12 [Example 35]	36.5 nM	138	4.8 µM	
COc1c(N2C[C@@H](C)N[C@@H](C)C2)c(F)cc2c(=O)c(C(=O)NCc3ccc(Cl)cc3Cl)cn(C3CCC3)c12 [Example 40]	110 nM	100	11 µM	
COc1c(N2C[C@@H](C)N(CC(N)=O)[C@@H](C)C2)c(F)cc2c(=O)c(C(=O)NCc3ccc(Cl)cc3Cl)cn(CC(F)(F)F)c12 [Example 53, {(2RS,6SR)-4-[3-{[(2,4-Dichlorobenzyl)amino]carbonyl}-6-fluoro-8-methoxy-4-oxo-1-(2,2,2-trifluoroethyl)-1,4-dihydroquinolin-7-yl]-2,6-dimethylpiperazin-1-yl}acetamide]	10 nM	430	4.3 µM	
COc1c(N2C[C@@H](C)N(CC(=O)N(C)C)[C@@H](C)C2)c(F)cc2c(=O)c(C(=O)NCc3ccc(Cl)cc3Cl)cn(CC(F)(F)F)c12 [Example 54]	8.5 nM	2471	21 µM	
COc1c(N2C[C@@H](C)N(C(=O)CN)[C@@H](C)C2)c(F)cc2c(=O)c(C(=O)NCc3ccc(Cl)cc3Cl)cn(C3CC3)c12 [Example 79, 1-Cyclopropyl-N-(2,4-dichlorobenzyl)-6-fluoro-7-[(3RS,5SR)-4-glycyl-3,5-dimethylpiperazin-1-yl]-8-methoxy-4-oxo-1,4-dihydroquinoline-3-carboxamide hydrochloride]		145	7.7 µM	53 nM
